Laboratory results taken from ChEMBL document CHEMBL1201862, “PubChem BioAssay data set” (2004).
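How tested: cells in 96-well plates exposed to compound for 48 hours at five concentrations. GI50 marks 50% less growth.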 Activity calls are given as the source filed them. Rule as the data show it: active = GI50 up to about 1.1 µM and inactive = higher.

How the values were obtained:
Assay in all cases: growth of human tumour cells (NCI), 48 h
HT-29 = test system: HT-29
LXFL 529 = test system: LXFL 529
CCRF-CEM = test system: CCRF-CEM
U-251 = test system: U-251
SR = test system: SR
CAKI-1 = test system: CAKI-1
SF-539 = test system: SF-539
TK-10 = test system: TK-10
SK-MEL-2 = test system: SK-MEL-2
786-0 = test system: 786-0
DMS-114 = test system: DMS-114
NCI-H226 = test system: NCI-H226
SNB-19 = test system: SNB-19
SK-OV-3 = test system: SK-OV-3
KM-20L2 = test system: KM-20L2
HCT-116 = test system: HCT-116
DLD-1 = test system: DLD-1
OVCAR-4 = test system: OVCAR-4
SK-MEL-28 = test system: SK-MEL-28
IGROV-1 = test system: IGROV-1
HOP-62 = test system: HOP-62
M19-MEL = test system: M19-MEL
SK-MEL-5 = test system: SK-MEL-5
A549 = test system: A549
NCI-H522 = test system: NCI-H522
EKVX = test system: EKVX
SNB-78 = test system: SNB-78
SN12C = test system: SN12C
HCC 2998 = test system: HCC 2998
HCT-15 = test system: HCT-15
MOLT-4 = test system: MOLT-4
RPMI-8226 = test system: RPMI-8226
HOP-92 = test system: HOP-92
OVCAR-3 = test system: OVCAR-3
SNB-75 = test system: SNB-75
DMS-273 = test system: DMS-273
K562 = test system: K562
OVCAR-5 = test system: OVCAR-5
KM12 = test system: KM12
NCI-H23 = test system: NCI-H23
COLO 205 = test system: COLO 205
NCI-H460 = test system: NCI-H460
UACC-62 = test system: UACC-62
OVCAR-8 = test system: OVCAR-8
XF498 = test system: XF498
SW-620 = test system: SW-620
Malme-3M = test system: Malme-3M
A498 = test system: A498
UACC-257 = test system: UACC-257
ACHN = test system: ACHN
SF-268 = test system: SF-268
HOP-18 = test system: HOP-18
UO-31 = test system: UO-31
HL-60 = test system: HL-60
RXF 631 = test system: RXF 631
M14 = test system: M14
SF-295 = test system: SF-295
LOX IMVI = test system: LOX IMVI
RXF 393 = test system: RXF 393

Cc1ccc(NC(=O)/C(=N\NC(N)=S)C(C#N)c2ccccc2C)cc1C (stereo unspecified)
GI50 (HT-29): > 100 µM (inactive)
GI50 (LXFL 529): > 100 µM (inactive)
GI50 (CCRF-CEM): > 100 µM (inactive)
GI50 (U-251): > 100 µM (inactive)
GI50 (SR): > 100 µM (inactive)
GI50 (CAKI-1): > 100 µM (inactive)
GI50 (SF-539): > 100 µM (inactive)
GI50 (TK-10): > 100 µM (inactive)
GI50 (SK-MEL-2): > 100 µM (inactive)
GI50 (786-0): > 100 µM (inactive)
GI50 (DMS-114): > 100 µM (inactive)
GI50 (NCI-H226): > 100 µM (inactive)
GI50 (SNB-19): > 100 µM (inactive)
GI50 (SK-OV-3): > 100 µM (inactive)
GI50 (KM-20L2): > 100 µM (inactive)
GI50 (HCT-116): > 100 µM (inactive)
GI50 (DLD-1): > 100 µM (inactive)
GI50 (OVCAR-4): > 100 µM (inactive)
GI50 (SK-MEL-28): > 100 µM (inactive)
GI50 (IGROV-1): > 100 µM (inactive)
GI50 (HOP-62): > 100 µM (inactive)
GI50 (M19-MEL): > 100 µM (inactive)
GI50 (SK-MEL-5): > 100 µM (inactive)
GI50 (A549): > 100 µM (inactive)
GI50 (NCI-H522): > 100 µM (inactive)
GI50 (EKVX): > 100 µM (inactive)
GI50 (SNB-78): > 100 µM (inactive)
GI50 (SN12C): > 100 µM (inactive)
GI50 (HCC 2998): > 100 µM (inactive)
GI50 (HCT-15): > 100 µM
GI50 (MOLT-4): > 100 µM (inactive)
GI50 (RPMI-8226): > 100 µM (inactive)
GI50 (HOP-92): > 100 µM (inactive)
GI50 (OVCAR-3): > 100 µM (inactive)
GI50 (SNB-75): 66.5 µM (inactive)
GI50 (DMS-273): > 100 µM (inactive)
GI50 (K562): > 100 µM (inactive)
GI50 (OVCAR-5): > 100 µM (inactive)
GI50 (KM12): > 100 µM (inactive)
GI50 (NCI-H23): > 100 µM (inactive)
GI50 (COLO 205): > 100 µM (inactive)
GI50 (NCI-H460): > 100 µM (inactive)
GI50 (UACC-62): > 100 µM (inactive)
GI50 (OVCAR-8): > 100 µM (inactive)
GI50 (XF498): > 100 µM (inactive)
GI50 (SW-620): > 100 µM (inactive)
GI50 (Malme-3M): > 100 µM (inactive)
GI50 (A498): > 100 µM (inactive)
GI50 (UACC-257): > 100 µM (inactive)
GI50 (ACHN): > 100 µM (inactive)
GI50 (SF-268): > 100 µM (inactive)
GI50 (HOP-18): > 100 µM (inactive)
GI50 (UO-31): > 100 µM (inactive)
GI50 (HL-60): > 100 µM (inactive)
GI50 (RXF 631): > 100 µM (inactive)
GI50 (M14): > 100 µM (inactive)
GI50 (SF-295): > 100 µM (inactive)

C[Si](C)(C)/N=C1\N2C(=NC1(C(F)(F)F)C(F)(F)F)Sc1ccccc12
GI50 (HT-29): > 50 µM (inactive)
GI50 (LXFL 529): > 50 µM (inactive)
GI50 (CCRF-CEM): > 50 µM (inactive)
GI50 (U-251): > 50 µM (inactive)
GI50 (SR): > 50 µM (inactive)
GI50 (CAKI-1): > 50 µM (inactive)
GI50 (SF-539): > 50 µM (inactive)
GI50 (TK-10): > 50 µM (inactive)
GI50 (SK-MEL-2): > 50 µM (inactive)
GI50 (786-0): > 50 µM (inactive)
GI50 (DMS-114): > 50 µM (inactive)
GI50 (NCI-H226): > 50 µM (inactive)
GI50 (SNB-19): > 50 µM (inactive)
GI50 (SK-OV-3): > 50 µM (inactive)
GI50 (KM-20L2): > 50 µM (inactive)
GI50 (HCT-116): > 50 µM (inactive)
GI50 (DLD-1): > 50 µM (inactive)
GI50 (OVCAR-4): > 50 µM (inactive)
GI50 (IGROV-1): > 50 µM (inactive)
GI50 (HOP-62): > 50 µM (inactive)
GI50 (M19-MEL): > 50 µM (inactive)
GI50 (SK-MEL-5): > 50 µM (inactive)
GI50 (A549): > 50 µM (inactive)
GI50 (NCI-H522): > 50 µM (inactive)
GI50 (EKVX): > 50 µM (inactive)
GI50 (SNB-78): > 50 µM (inactive)
GI50 (SN12C): > 50 µM (inactive)
GI50 (HCC 2998): > 50 µM (inactive)
GI50 (HCT-15): > 50 µM
GI50 (MOLT-4): > 50 µM (inactive)
GI50 (RPMI-8226): > 50 µM (inactive)
GI50 (HOP-92): 29.9 µM (inactive)
GI50 (OVCAR-3): > 50 µM (inactive)
GI50 (SNB-75): > 50 µM (inactive)
GI50 (DMS-273): > 50 µM (inactive)
GI50 (K562): > 50 µM (inactive)
GI50 (OVCAR-5): > 50 µM (inactive)
GI50 (LOX IMVI): > 50 µM (inactive)
GI50 (KM12): > 50 µM (inactive)
GI50 (NCI-H23): > 50 µM (inactive)
GI50 (COLO 205): > 50 µM (inactive)
GI50 (NCI-H460): > 50 µM (inactive)
GI50 (UACC-62): > 50 µM (inactive)
GI50 (OVCAR-8): > 50 µM (inactive)
GI50 (XF498): > 50 µM (inactive)
GI50 (SW-620): > 50 µM (inactive)
GI50 (Malme-3M): > 50 µM (inactive)
GI50 (RXF 393): > 50 µM (inactive)
GI50 (A498): > 50 µM (inactive)
GI50 (UACC-257): > 50 µM (inactive)
GI50 (ACHN): > 50 µM (inactive)
GI50 (SF-268): > 50 µM (inactive)
GI50 (HOP-18): > 50 µM (inactive)
GI50 (UO-31): > 50 µM (inactive)
GI50 (HL-60): > 50 µM (inactive)
GI50 (RXF 631): > 50 µM (inactive)
GI50 (M14): > 50 µM (inactive)
GI50 (SF-295): > 50 µM (inactive)

C/N=C(\NC(=S)N(C)C)N(C)C
GI50 (HT-29): > 100 µM (inactive)
GI50 (LXFL 529): > 100 µM (inactive)
GI50 (CCRF-CEM): > 100 µM (inactive)
GI50 (U-251): > 100 µM (inactive)
GI50 (SR): > 100 µM (inactive)
GI50 (CAKI-1): > 100 µM (inactive)
GI50 (SF-539): > 100 µM (inactive)
GI50 (TK-10): > 100 µM (inactive)
GI50 (SK-MEL-2): > 100 µM (inactive)
GI50 (786-0): > 100 µM (inactive)
GI50 (DMS-114): > 100 µM (inactive)
GI50 (NCI-H226): 48.5 µM (inactive)
GI50 (SNB-19): > 100 µM (inactive)
GI50 (SK-OV-3): > 100 µM (inactive)
GI50 (KM-20L2): > 100 µM (inactive)
GI50 (HCT-116): > 100 µM (inactive)
GI50 (DLD-1): > 100 µM (inactive)
GI50 (OVCAR-4): > 100 µM (inactive)
GI50 (SK-MEL-28): > 100 µM (inactive)
GI50 (IGROV-1): > 100 µM (inactive)
GI50 (HOP-62): > 100 µM (inactive)
GI50 (M19-MEL): > 100 µM (inactive)
GI50 (SK-MEL-5): > 100 µM (inactive)
GI50 (A549): > 100 µM (inactive)
GI50 (NCI-H522): > 100 µM (inactive)
GI50 (EKVX): > 100 µM (inactive)
GI50 (SNB-78): > 100 µM (inactive)
GI50 (SN12C): > 100 µM (inactive)
GI50 (HCC 2998): > 100 µM (inactive)
GI50 (HCT-15): > 100 µM
GI50 (MOLT-4): > 100 µM (inactive)
GI50 (RPMI-8226): > 100 µM (inactive)
GI50 (HOP-92): > 100 µM (inactive)
GI50 (SNB-75): > 100 µM (inactive)
GI50 (DMS-273): > 100 µM (inactive)
GI50 (K562): > 100 µM (inactive)
GI50 (OVCAR-5): > 100 µM (inactive)
GI50 (KM12): > 100 µM (inactive)
GI50 (NCI-H23): > 100 µM (inactive)
GI50 (NCI-H460): > 100 µM (inactive)
GI50 (UACC-62): > 100 µM (inactive)
GI50 (OVCAR-8): > 100 µM (inactive)
GI50 (XF498): > 100 µM (inactive)
GI50 (SW-620): > 100 µM (inactive)
GI50 (Malme-3M): > 100 µM (inactive)
GI50 (RXF 393): > 100 µM (inactive)
GI50 (A498): > 100 µM (inactive)
GI50 (UACC-257): > 100 µM (inactive)
GI50 (ACHN): > 100 µM (inactive)
GI50 (SF-268): > 100 µM (inactive)
GI50 (HOP-18): > 100 µM (inactive)
GI50 (UO-31): > 100 µM (inactive)
GI50 (HL-60): > 100 µM (inactive)
GI50 (RXF 631): > 100 µM (inactive)
GI50 (M14): > 100 µM (inactive)
GI50 (SF-295): > 100 µM (inactive)
